Results as given in patent publication US20060172992A1, “Therapeutic agent for overactive bladder resulting from cerebral infarction” (EISAI CO., LTD., priority 2004, published 2006).
“Also recorded” adds a separate entry of the source.

Columns and labels:
[1] = test system: cerebral infarction rats; test: Bladder pressure measurement after intraventricular administration, cerebral infarction rats; type: in vivo, rat
Description: After producing cerebral infarction rats, drug infusion tubes were placed in the lateral ventricles of the rats.
The process was conducted in the same manner as Example 5 except that metal tubes were inserted into lateral ventricles upon producing cerebral infarction rats. […] Feasibility of intraventricular administration was determined after injecting ink into the brain, sacrificing the rats and removing the brains to verify on their faces. […] As vehicle, saline was infused for […]. Experiments of five examples for each concentration were conducted.

[2] = test system: overactive bladder model rats (cerebral infarction by left middle cerebral artery embolization); test: Bladder pressure measurement after intravenous administration, cerebral infarction rats (CI group)
[3] = test system: rat with overactive bladder caused by cerebrovascular disease; conditions: cited from earlier work
[4] = test system: human with overactive bladder caused by cerebrovascular disease; conditions: cited from earlier work
[5] = 5×10^−4 mg/kg and 5×10^−5 mg/kg

For COc1cc2c(cc1OC)C(=O)C(CC1CCN(Cc3ccccc3)CC1)C2.Cl (stereo not drawn) [donepezil hydrochloride, 1-benzyl-4-[(5,6-dimethoxy-1-indanone)-2-yl]methylpiperidine hydrochloride], the “bladder capacity, dose comparison” value ([1]; cerebral infarction group, 5×10^−5 mg/ml) was “most increased”, the “increase in bladder capacity” value ([1]; cerebral infarction rats, 5×10^−5 mg/ml) was 95.8% and the “bladder capacity, difference from vehicle administration group” value ([1]; cerebral infarction rats, 5 μl of 5×10^−5 mg/ml and 5×10^−6 mg/ml, hydrochloride) was “increased with a significant margin”. The bladder capacity ([1]; cerebral infarction rats, 5 μl of 5×10^−7 to 5×10^−4 mg/ml, hydrochloride) was “notably increased”, the micturition contraction pressure ([1]; respective doses, versus vehicle, hydrochloride) was “No change; also recorded: no significant difference” and the micturition contraction pressure [2, 5] was “no change”. For the same compound, the retained urine [2, 5] was “little retained urine”, the micturition contraction pressure ([2]; CI group, 5×10^−1 mg/kg) was “significantly increased” and the “bladder capacity, difference from vehicle administration group” value ([2]; CI group, 5×10^−4 mg/kg and 5×10^−5 mg/kg, hydrochloride) was “significant difference from the vehicle administration group”. The “increase in bladder capacity (percentage of change from control)” value ([2]; CI group, 5×10^−5 mg/kg) was 52.8%, the “percentage of change in bladder capacity” value ([2]; CI group, 5×10^−4 to 5×10^−5 mg/kg (bladder capacity most increased)) was 52.8% and the bladder capacity ([2]; CI group, 5×10^−7 to 5×10^−1 mg/kg every 30 minutes, hydrochloride, 1 mg/kg) was “increased the bladder capacities; also recorded: gradually increased”. For the same compound, the “micturition contraction pressure, versus vehicle administration group” value ([2]; CI group, 5×10^−7 to 5×10^−2 mg/kg) was “no significant difference”.

In the case of COc1ccc(C(=O)N2CCCC2=O)cc1 [Aniracetam], the micturition reflex [3] is listed as “suppression of micturition reflex is observed” and the micturition reflex [4] is listed as “suppression of micturition reflex is observed”.
